Reference: patent US12263171B2, “7-, 8-, and 10-substituted amino triazolo quinazoline derivatives as adenosine receptor antagonists, pharmaceutical compositions and their use” (Merck Sharp & Dohme LLC, priority 2018, dated 2025)

Key:
[1] = molecular target: human A2b adenosine receptor (Homo sapiens (Human), UniProt P29275); assay: A2B antagonism in cAMP cell-based assay (LANCE cAMP, HEK293 cells, 600 nM adenosine); conditions: for IC50: values marked *: cAMP cell-based assay; for *A2B cAMP % inh. @ 10000 nM: marked *
Protocol: Measurement of A2A and A2B Antagonism in cAMP Cell-Based Assay
All subsequent liquid additions were performed using a multichannel pipettor. […] After this time 5 μL of either 300 nM or 600 nM adenosine (Sigma Cat. No. A9251) for A2A and A2B respectively was added and incubated for 30 minutes at 37° C. and 5% CO2 in a humidified environment. At this time detection mix was prepared by combining the LANCE Eu-W8044 labeled streptavidin and. Biotin-cAMP in detection buffer according to the manufacturers protocol. […] Curve fitting of the percent effect data versus the log of compound concentration used a 4-parameter concentration response curve fitting algorithm to calculate IC50 values.

[2] = molecular target: human A2a adenosine receptor (Homo sapiens (Human), UniProt P29274); assay: A2a receptor affinity radioligand binding assay ([3H] SCH58261, membranes from HEK293 or CHO cells); conditions: unstarred values: radioligand binding
Summary of the method: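 Displacement of tritiated SCH58261 (working dilution 4 nM) from recombinant human A2a receptor membranes (HEK293 or CHO), 60 min at room temperature in Tris pH 7.4/MgCl2 buffer after 15–30 min compound preincubation. Scintillation counting after filtration; normalized percent effect fitted 4-parameter logistic for IC50.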

Chain of human A2b adenosine receptor (P29275 whole entry): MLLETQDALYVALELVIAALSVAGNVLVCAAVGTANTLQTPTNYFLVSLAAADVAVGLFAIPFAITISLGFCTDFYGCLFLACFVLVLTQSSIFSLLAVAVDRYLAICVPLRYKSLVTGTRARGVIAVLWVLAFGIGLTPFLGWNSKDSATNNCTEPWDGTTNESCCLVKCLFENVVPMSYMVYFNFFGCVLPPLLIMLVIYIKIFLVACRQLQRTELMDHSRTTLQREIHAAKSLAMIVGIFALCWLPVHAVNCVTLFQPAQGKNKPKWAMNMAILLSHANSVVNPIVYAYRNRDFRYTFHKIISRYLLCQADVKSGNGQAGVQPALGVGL
Chain of human A2a adenosine receptor (P29274 whole entry): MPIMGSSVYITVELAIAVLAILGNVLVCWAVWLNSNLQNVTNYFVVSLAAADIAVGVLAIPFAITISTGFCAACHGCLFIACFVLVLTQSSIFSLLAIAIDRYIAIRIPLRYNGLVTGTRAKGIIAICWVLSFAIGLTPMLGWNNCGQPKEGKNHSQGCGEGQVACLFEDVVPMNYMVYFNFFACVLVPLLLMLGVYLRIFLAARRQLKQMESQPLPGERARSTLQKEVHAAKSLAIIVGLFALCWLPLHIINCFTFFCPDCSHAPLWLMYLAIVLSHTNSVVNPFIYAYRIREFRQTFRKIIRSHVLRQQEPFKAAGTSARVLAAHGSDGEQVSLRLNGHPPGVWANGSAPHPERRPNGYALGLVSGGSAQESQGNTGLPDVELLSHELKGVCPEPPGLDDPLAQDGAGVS

SMILES	IC50 [1] [nM]	IC50 [2] [nM]	*A2B cAMP % inh. @ 10000 nM [1] [% inh. @ 10000 nM*]
COc1cccc2c1nc(N)n1nc(C3CCC(C)N(c4cnn(C5CC5)c4)C3)nc21 (single isomer, unassigned) [Example 141A]	712	2.2	–
COc1cccc2c1nc(N)n1nc(C3CCC(C)N(c4cnn(C5CC5)c4)C3)nc21 (single isomer, unassigned) [Example 141B]	2610	28.2	–
COc1cccc2c1nc(N)n1nc(C3CCC(C)N(c4cnn(C5CC5)c4)C3)nc21 (single isomer, unassigned) [Example 141D]	1650	3.1	–
COc1cccc2c1nc(N)n1nc(C3CCC(C)N(c4cnn(CC(F)(F)F)c4)C3)nc21 (single isomer, unassigned) [Example 142A, 7-methoxy-2-((3S,6S or 3R,6R)-6-methyl-1-(1-(2,2,2-trifluoroethyl)-1H-pyrazol-4-yl)piperidin-3-yl)-[1,2,4]triazolo[1,5-c]quinazolin-5-amine]	985	53.8	–
COc1cccc2c1nc(N)n1nc(C3CCC(C)N(c4cnn(CC(F)(F)F)c4)C3)nc21 (single isomer, unassigned) [Example 142B, 7-methoxy-2-((3R,6R or 3S,6S)-6-methyl-1-(1-(2,2,2-trifluoroethyl)-1H-pyrazol-4-yl)piperidin-3-yl)-[1,2,4]triazolo[1,5-c]quinazolin-5-amine]	1150	0.8	–
COc1cccc2c1nc(N)n1nc(C3CCC(C)N(c4cnn(CC(F)(F)F)c4)C3)nc21 (single isomer, unassigned) [Example 142D]	9.3	0.9	–
COc1cccc2c1nc(N)n1nc(C3CCC(C)N(c4cnn(CC(C)(C)O)c4)C3)nc21 (single isomer, unassigned) [Example 143B, 1-(4-((2S,5S or 2R,5R)-5-(5-amino-7-methoxy-[1,2,4]triazolo[1,5-c]quinazolin-2-yl)-2-methylpiperidin-1-yl)-1H-pyrazol-1-yl)-2-methylpropan-2-ol]	604	0.9	–
COc1cccc2c1nc(N)n1nc(C3CCC(C)N(c4cnn(CC(C)(C)O)c4)C3)nc21 (single isomer, unassigned) [Example 143C]	651	31.6	–
COc1cccc2c1nc(N)n1nc(C3CCC(C)N(c4cnn(CC5(O)CCC5)c4)C3)nc21 (single isomer, unassigned) [Example 144D]	4	1.2	–
COc1cccc2c1nc(N)n1nc([C@@H]3CCCN(c4cnn(C)c4C(F)(F)F)C3)nc21 [Example 2, (R)-7-methoxy-2-(1-(1-methyl-5-(trifluoromethyl)-1H-pyrazol-4-yl)piperidin-3-yl)-[1,2,4]triazolo[1,5-c]quinazolin-5-amine]	763	1	–
COc1cccc2c1nc(N)n1nc([C@@H]3CCCN(c4cnn(C(F)F)c4)C3)nc21 [Example 3, (R)-2-(1-(1-(difluoromethyl)-1H-pyrazol-4-yl)piperidin-3-yl)-7-methoxy-[1,2,4]triazolo[1,5-c]quinazolin-5-amine]	42.6	1.3	–
CCn1cc(N2CCC[C@@H](c3nc4c5cccc(OC)c5nc(N)n4n3)C2)cn1 [Example 4, (R)-2-(1-(1-ethyl-1H-pyrazol-4-yl)piperidin-3-yl)-7-methoxy-[1,2,4]triazolo[1,5-c]quinazolin-5-amine]	49.5	1.4	–
COc1cccc2c1nc(N)n1nc([C@@H]3CCCN(c4cnn(C(C)C)c4)C3)nc21 [Example 5, (R)-2-(1-(1-isopropyl-1H-pyrazol-4-yl)piperidin-3-yl)-7-methoxy-[1,2,4]triazolo[1,5-c]quinazolin-5-amine]	39.5	2.4	–
COc1cccc2c1nc(N)n1nc([C@@H]3CCCN(c4cnn(C(C)(C)C)c4)C3)nc21 [Example 6, (R)-2-(1-(1-(tert-butyl)-1H-pyrazol-4-yl)piperidin-3-yl)-7-methoxy-[1,2,4]triazolo[1,5-c]quinazolin-5-amine]	30	1.3	–
COc1cccc2c1nc(N)n1nc([C@@H]3CCCN(c4cnn(C5CC5)c4)C3)nc21 [Example 7, (R)-2-(1-(1-cyclopropyl-1H-pyrazol-4-yl)piperidin-3-yl)-7-methoxy-[1,2,4]triazolo[1,5-c]quinazolin-5-amine]	38.5	1.4	–
COc1cccc2c1nc(N)n1nc([C@@H]3CCCN(c4cnn(CC5CCC5)c4)C3)nc21 [Example 8, (R)-2-(1-(1-(cyclobutylmethyl)-1H-pyrazol-4-yl)piperidin-3-yl)-7-methoxy-[1,2,4]triazolo[1,5-c]quinazolin-5-amine]	211	1.4	–
COc1cccc2c1nc(N)n1nc([C@@H]3CCCN(c4cnn(C)c4C)C3)nc21 [Example 10, (R)-2-(1-(1,5-dimethyl-1H-pyrazol-4-yl)pipiperidin-3-yl)-7-methoxy-[1,2,4]triazolo[1,5-c]quinazolin-5-amine]	252	1.5	–
COc1cccc2c1nc(N)n1nc([C@@H]3CCCN(c4c(C)nn(C)c4C)C3)nc21 [Example 11, (R)-7-methoxy-2-(1-(1,3,5-trimethyl-1H-pyrazol-4-yl)piperidin-3-yl)-[1,2,4]triazolo[1,5-c]quinazolin-5-amine]	3700	0.8	–
COc1cccc2c1nc(N)n1nc([C@@H]3CCCN(c4cnn5ncccc45)C3)nc21 [Example 12, (R)-7-methoxy-2-(1-(pyrazolo[1,5-b]pyridazin-3-yl)-piperidin-3-yl)-[1,2,4]triazolo[1,5-c]quinazolin-5-amine]	104	0.6	–
COc1cccc2c1nc(N)n1nc([C@@H]3CCCN(c4cnn5c4CCC5)C3)nc21 [Example 13, (R)-2-(1-(5,6-dihydro-4H-pyrrolo[1,2-b]pyrazol-3-yl)piperidin-3-yl)-7-methoxy-[1,2,4]triazolo[1,5-c]quinazolin-5-amine]	112	0.9	–
COc1cccc2c1nc(N)n1nc([C@@H]3CCCN(c4cnn(CCF)c4)C3)nc21 [Example 14, (R)-2-(1-(1-(2-fluoroethyl)-1H-pyrazol-4-yl)piperidin-3-yl)-7-methoxy-[1,2,4]triazolo[1,5-c]quinazolin-5-amine]	31	0.7	–
CCn1ncc(N2CCC[C@@H](c3nc4c5cccc(OC)c5nc(N)n4n3)C2)c1C [Example 15, (R)-2-(1-(1-ethyl-5-methyl-1H-pyrazol-4-yl)piperidin-3-yl)-7-methoxy-[1,2,4]triazolo[1,5-c]quinazolin-5-amine]	147	0.5	–
COc1cccc2c1nc(N)n1nc([C@@H]3CCCN(c4cnn(CC5CC5)c4)C3)nc21 [Example 16, (R)-2-(1-(1-(cyclopropylmethyl)-1H-pyrazol-4-yl)piperidin-3-yl)-7-methoxy-[1,2,4]triazolo[1,5-c]quinazolin-5-amine]	92.8	0.8	–
COc1cccc2c1nc(N)n1nc([C@@H]3CCCN(c4cnn(C5CCC5)c4)C3)nc21 [Example 18, (R)-2-(1-(1-cyclobutyl-1H-pyrazol-4-yl)piperidin-3-yl)-7-methoxy-[1,2,4]triazolo[1,5-c]quinazolin-5-amine]	46.4	1	–

Other lines, results leading:

IC50 [1] [nM]	IC50 [2] [nM]	*A2B cAMP % inh. @ 10000 nM [1] [% inh. @ 10000 nM*]	SMILES
386	0.8	–	COc1cccc2c1nc(N)n1nc(C3CN(c4cnn(C5CC5)c4)CC(F)(F)C3)nc21 (single isomer, unassigned) [Example 154A]
–	17.4	13	COc1cccc2c1nc(N)n1nc(C3CN(c4cnn(C5CC5)c4)CC(F)(F)C3)nc21 (single isomer, unassigned) [Example 154B]
1330	12.1	–	COc1cccc2c1nc(N)n1nc(C3CN(c4cnn(CC(F)(F)F)c4)CC(F)(F)C3)nc21 (single isomer, unassigned) [Example 155A]
301	0.7	–	COc1cccc2c1nc(N)n1nc(C3CN(c4cnn(CC(F)(F)F)c4)CC(F)(F)C3)nc21 (single isomer, unassigned) [Example 155B]
1390	2.2	–	COc1cccc2c1nc(N)n1nc(C3CN(c4cnn(CC(C)(C)O)c4)CC(F)(F)C3)nc21 (single isomer, unassigned) [Example 156B, (R or S)-1-(4-(5-(5-amino-7-methoxy-[1,2,4]triazolo[1,5-c]quinazolin-2-yl)-3,3-difluoropiperidin-1-yl)-1H-pyrazol-1-yl)-2-methylpropan-2-ol]
491	2.4	–	CC[C@@H]1CC[C@H](c2nc3c4cccc(OC)c4nc(N)n3n2)CN1c1cnn(CC(C)(C)O)c1 (single isomer, unassigned) [Example 216D]
–	50.7	9	COc1ccc2c(c1)nc(N)n1nc([C@H]3C[C@H](C(F)(F)F)CN(c4cnn(CC(C)(C)O)c4)C3)nc21 (single isomer, unassigned) [Example 218A, 1-(4-((3S,5S or 3R,5R)-3-(5-amino-8-methoxy-[1,2,4]triazolo[1,5-c]quinazolin-2-yl)-5-(trifluoromethyl)piperidin-1-yl)-1H-pyrazol-1-yl)-2-methylpropan-2-ol]
815	1.32	–	COc1ccc2c(c1)nc(N)n1nc([C@@H]3C[C@H](C)CN(c4cnn(C(C)(C)CO)c4)C3)nc21 (single isomer, unassigned) [Example 222A]
